From US20260053861A1, “CELL COMPOSITIONS AND METHODS OF USING THE SAME” (THE REGENTS OF THE UNIVERSITY OF CALIFORNIA, priority 2022, published 2026)
Where a name gives a salt, the structure may show the parent alone.

Test system: hPSC-SCs
Conditions: not given

SMILES | z.score.t
CC(=O)N(CC(O)CN(C(C)=O)c1c(I)c(C(=O)NCC(O)CO)c(I)c(C(=O)NCC(O)CO)c1I)c1c(I)c(C(=O)NCC(O)CO)c(I)c(C(=O)NCC(O)CO)c1I (centres unmarked) [Iodixanol] | 0.7539
CC(C)[N+]1(C)[C@@H]2CC[C@H]1CC(OC(=O)C(CO)c1ccccc1)C2.[Br-] (some centres unmarked) [Ipratropium bromide] | −0.649
CC[C@H](C)[C@H]1O[C@]2(CC[C@@H]1C)C[C@@H]1C[C@@H](C/C=C(\C)[C@@H](O[C@H]3C[C@H](OC)[C@@H](O[C@H]4C[C@H](OC)[C@@H](O)[C@H](C)O4)[C@H](C)O3)[C@@H](C)/C=C/C=C3\CO[C@@H]4[C@H](O)C(C)=C[C@@H](C(=O)O1)[C@]34O)O2 [Ivermectin] | −1.866
CCN1C[C@]2(C)CC[C@H](O)[C@]34C1[C@@H](C[C@H]23)[C@@]1(O)C[C@H](OC)[C@H]2C[C@@H]4[C@@H]1[C@H]2O [Karakoline] | 1.53
COC1=CC(=O)O[C@@H](/C=C/c2ccccc2)C1 [Kawain] | 0.9109
Cl.OC1CCCCC1N1CCC(c2ccccc2)CC1 (stereo not drawn) [L(−)-vesamicol hydrochloride] | 0.6964
CC(=O)O[C@H]1C[C@H](O[C@H]2[C@@H](O)C[C@H](O[C@H]3[C@@H](O)C[C@H](O[C@H]4CC[C@@]5(C)[C@H](CC[C@@H]6[C@@H]5C[C@@H](O)[C@]5(C)[C@@H](C7=CC(=O)OC7)CC[C@]65O)C4)O[C@@H]3C)O[C@@H]2C)O[C@H](C)[C@H]1O[C@@H]1O[C@H](CO)[C@@H](O)[C@H](O)[C@H]1O [Lanatoside C] | −2.334
CC1=CC(=O)C2=C(C)CC[C@@H]3[C@H](OC(=O)[C@H]3C)[C@@H]12 [Leucomisine] | 1.214
C[C@H](N)[C@H](O)c1ccc(O)c(O)c1 [Levonordefrin] | 0.1916
CCC(=O)O[C@@](Cc1ccccc1)(c1ccccc1)[C@@H](C)CN(C)C [Levopropoxyphene napsylate] | −0.5351
CCN(CC)CC(=O)Nc1c(C)cccc1C.Cl [LidocaÂ<ne hydrochloride] | −0.01953
CN1[C@@H](C[C@@H](O)c2ccccc2)CCC[C@H]1C[C@H](O)c1ccccc1.Cl [Lobelanidine hydrochloride] | −0.3319
CN1[C@@H](CC(=O)c2ccccc2)CCC[C@H]1C[C@H](O)c1ccccc1.Cl [Lobeline alpha (−) hydrochoride] | −0.2904
CN(C)C(=O)C(CCN1CCC(O)(c2ccc(Cl)cc2)CC1)(c1ccccc1)c1ccccc1 [Loperamide hydrochloride] | −1.329
COC1=C[C@@H]2C3=C([C@@H]2C1=O)[C@@H](NC(C)=O)CCc1cc(OC)c(OC)c(OC)c13 [Lumicolchicine gamma] | 1.528
CN1C[C@H](CO)C=C2c3cccc4[nH]cc(c34)C[C@H]21 [Lysergol] | 0.1979

Same assay, conditions: HTS viability of hPSC-SCs in the presence of 30 mM glucose; Prestwick library; Table S4

SMILES | z.score.t
CC(=O)N(CC(C)C(=O)O)c1c(I)cc(I)c(N)c1I (centres unmarked) [Iocetamic acid] | 0.9178
O=C(CCCCC(=O)Nc1c(I)cc(I)c(C(=O)O)c1I)Nc1c(I)cc(I)c(C(=O)O)c1I [Iodipamide] | 0.5976
CC(=O)N(CC(O)CO)c1c(I)c(C(=O)NCC(O)CO)c(I)c(C(=O)NCC(O)CO)c1I (centres unmarked) [Iohexol] | −0.07901
C[C@H](O)C(=O)Nc1c(I)c(C(=O)NC(CO)CO)c(I)c(C(=O)NC(CO)CO)c1I [Iopamidol] | −1.025
CCC(Cc1c(I)cc(I)c(N)c1I)C(=O)O (centres unmarked) [Iopanoic acid] | 1.279
COCC(=O)Nc1c(I)c(C(=O)NCC(O)CO)c(I)c(C(=O)N(C)CC(O)CO)c1I (centres unmarked) [Iopromide] | −0.5992
O=C(NCC(O)CO)c1c(I)c(C(=O)NCC(O)CO)c(I)c(N(CCO)C(=O)CO)c1I (centres unmarked) [Ioversol] | −0.5789
CNC(=O)c1c(I)c(C(=O)NCC(=O)Nc2c(I)c(C(=O)O)c(I)c(C(=O)NCCO)c2I)c(I)c(N(C)C(C)=O)c1I [Ioxaglic acid] | 1.475
Cc1cc(C(=O)NNCc2ccccc2)no1 [Isocarboxazid] | −0.9569
Clc1ccc(C(Cn2ccnc2)OCc2c(Cl)cccc2Cl)c(Cl)c1 (centres unmarked) [Isoconazole] | −1.91
COc1ccc2c(c1O)-c1c(OC)c(OC)cc3c1[C@H](C2)N(C)CC3 [Isocorydine (+)] | 1.845
CC(=O)OCC(=O)[C@@]1(O)CC[C@H]2[C@@H]3CCC4=CC(=O)C=C[C@]4(C)[C@@]3(F)[C@@H](O)C[C@@]21C [Isoflupredone acetate] | −0.3156
CNC(C)CCC=C(C)C.CNC(C)CCC=C(C)C.O=C(O)[C@@H](O)[C@H](O)[C@H](O)[C@@H](O)C(=O)O [Isometheptene mucate] | 1.27
NNC(=O)c1ccncc1 [Isoniazid] | 0.5041
CC(C)[N+](C)(CCC(C(N)=O)(c1ccccc1)c1ccccc1)C(C)C [Isopropamide iodide] | 0.3675
Cc1c(NC(C)C)c(=O)n(-c2ccccc2)n1C.Cl [Isopyrin hydrochloride] | −0.2359
CC1=C(/C=C/C(C)=C/C=C/C(C)=C\C(=O)O)C(C)(C)CCC1 [Isotretinoin] | 0.4346
Cc1cc(NC(=O)C2=C(O)c3ccccc3S(=O)(=O)N2C)no1 [Isoxicam] | 1.24
CC(COc1ccccc1)NC(C)C(O)c1ccc(O)cc1 (centres unmarked) [Isoxsuprine hydrochloride] | −0.1687
COC(=O)C1=C(C)NC(C)=C(C(=O)OC(C)C)C1c1cccc2nonc12 (centres unmarked) [Isradipine] | 0.6428
CO[C@@H]1[C@@H](O[C@@H]2O[C@H](C)[C@@H](O[C@H]3C[C@@](C)(O)[C@@H](OC(=O)CC(C)C)[C@H](C)O3)[C@H](N(C)C)[C@H]2O)[C@@H](CC=O)C[C@@H](C)[C@@H](O)/C=C/C=C/C[C@@H](C)OC(=O)C[C@H]1OC(C)=O [Josamycin] | −0.827
O=c1c(O)c(-c2ccc(O)cc2)oc2cc(O)cc(O)c12 [Kaempferol] | −1.014
NC[C@H]1O[C@H](O[C@H]2[C@H](O)[C@@H](O[C@H]3O[C@H](CO)[C@@H](O)[C@H](N)[C@H]3O)[C@H](N)C[C@@H]2N)[C@H](O)[C@@H](O)[C@@H]1O.O=S(=O)(O)O [Kanamycin A sulfate] | 0.07052
CC(=O)N1CCN(c2ccc(OCC3COC(Cn4ccnc4)(c4ccc(Cl)cc4Cl)O3)cc2)CC1 (centres unmarked) [Ketoconazole] | 1.669
CC(C(=O)O)c1cccc(C(=O)c2ccccc2)c1 (centres unmarked) [Ketoprofen] | −1.014
O=C(c1ccccc1)c1ccc2n1CCC2C(=O)O (centres unmarked) [Ketorolac tromethamine] | 0.8465

SMILES | z.score.t
CN1CCC(=C2c3ccccc3CC(=O)c3sccc32)CC1 [Ketotifen fumarate] | −0.7415
COc1c2occc2c(OC)c2c(=O)cc(C)oc12 [Khellin] | 0.7913
CC(CCc1ccccc1)NCC(O)c1ccc(O)c(C(N)=O)c1 (centres unmarked) [Labetalol hydrochloride] | 0.7665
O=C(O)[C@H](O)[C@@H](O)[C@H](O[C@@H]1O[C@H](CO)[C@H](O)[C@H](O)[C@H]1O)[C@H](O)CO [Lactobionic acid] | 1.942
Cc1c(OCC(F)(F)F)ccnc1C[S+]([O-])c1nc2ccccc2[nH]1 (centres unmarked) [Lansoprazole] | 1.808
CC[C@@H](C(=O)[C@@H](C)[C@@H](O)[C@H](C)CCc1ccc(C)c(O)c1C(=O)O)[C@H]1O[C@](CC)([C@H]2CC[C@](O)(CC)[C@H](C)O2)C[C@@H]1C [Lasalocid sodium salt] | −2.368
Cc1oncc1C(=O)Nc1ccc(C(F)(F)F)cc1 [Leflunomide] | 0.9178
N#Cc1ccc(C(c2ccc(C#N)cc2)n2cncn2)cc1 [Letrozole] | −0.4953
c1ccc([C@H]2CN3CCSC3=N2)cc1 [Levamisole hydrochloride] | 0.4064
C[C@@H]1CN([C@H]2CC[C@](C#N)(c3ccc(F)cc3)CC2)CC[C@]1(C(=O)O)c1ccccc1 [Levocabastine hydrochloride] | −0.6516
N[C@@H](Cc1ccc(O)c(O)c1)C(=O)O [Levodopa] | −1.365
Cc1cccc(C)c1NC(=O)CN1CCN(CCCC(c2ccc(F)cc2)c2ccc(F)cc2)CC1 [Lidoflazine] | −1.03
CCC[C@@H]1C[C@@H](C(=O)N[C@@H]([C@H]2O[C@H](SC)[C@H](O)[C@@H](O)[C@H]2O)[C@@H](C)O)N(C)C1 [Lincomycin hydrochloride] | 0.1446
N[C@@H](Cc1cc(I)c(Oc2ccc(O)c(I)c2)c(I)c1)C(=O)O [Liothyronine] | −1.539
NCCCC[C@H](N[C@@H](CCc1ccccc1)C(=O)O)C(=O)N1CCC[C@H]1C(=O)O [Lisinopril] | 0.08508
C[C@H](CCC(=O)O)[C@H]1CC[C@H]2[C@@H]3CC[C@@H]4C[C@H](O)CC[C@]4(C)[C@H]3CC[C@]12C [Lithocholic acid] | −0.7945
CCn1cc(C(=O)O)c(=O)c2cc(F)c(N3CCNC(C)C3)c(F)c21 (centres unmarked) [Lomefloxacin hydrochloride] | −0.9109
CCCCCN(CCCCC)C(=O)C(CCC(=O)O)NC(=O)c1ccc(Cl)c(Cl)c1 (centres unmarked) [Lorglumide sodium salt] | 1.824
CC[C@H](C)C(=O)O[C@H]1C[C@@H](C)C=C2C=C[C@H](C)[C@H](CC[C@@H]3C[C@@H](O)CC(=O)O3)[C@H]21 [Lovastatin] | −0.865
CN1CCN(C2=Nc3ccccc3Oc3ccc(Cl)cc32)CC1 [Loxapine succinate] | −0.2278
O=c1cc(-c2ccc(O)c(O)c2)oc2cc(O)cc(O)c12 [Luteolin] | −0.7945
CN(C)[C@@H]1C(O)=C(C(=O)NCNCCCC[C@H](N)C(=O)O)C(=O)[C@@]2(O)C(O)=C3C(=O)c4c(O)cccc4[C@@](C)(O)[C@H]3C[C@@H]12 [Lymecycline] | −0.5745
C#C[C@]1(O)CC[C@H]2[C@@H]3CCC4=CCCC[C@@H]4[C@H]3CC[C@@]21C [Lynestrenol] | −1.847
NCc1ccc(S(N)(=O)=O)cc1 [Mafenide hydrochloride] | −0.4019
CNCCCC12CCC(c3ccccc31)c1ccccc12 [Maprotiline hydrochloride] | −0.865
COC(=O)Nc1nc2ccc(C(=O)c3ccccc3)cc2[nH]1 [Mebendazole] | −1.584
